Source: patent US8580762B2, “Substituted purine and 7-deazapurine compounds” (Epizyme, Inc., priority 2010, dated 2013)

biological target: DOT1L(1-416) (Homo sapiens, UniProt Q8TEK3); assay: Determination of IC50: DOT1L(1-416) methyltransferase assay, 3H-SAM, oligonucleosome substrate, Flashplate; format: biochemical; conditions: class symbols; read-out: DOT1L IC50
Procedure: Determination of IC50. Test compounds were serially diluted 3 fold in DMSO for 10 points and 1 μl was plated in a 384 well microtiter plate. […] 10 μl per well of substrate mix (same assay buffer with 200 nM S-[methyl-^3H]-adenosyl-L methionine, 600 nM of unlabeled […], and 20 nM oligonueleosome) was added to initiate the reaction. Reaction was incubated for 120 minutes at room temperature and quenched with 10 μl per well of 100 μM S-methyl-adenosyl-L methionine. For detection, substrate from 50 μl of reaction was immobilized on a 384 well Streptavidin coated Flashplate (Perkin Elmer) (also coated with 0.2% polyethyleneimine) and read on a Top Count scintillation counter (Perkin Elmer).

DOT1L(1-416), sequence (Q8TEK3 1-416): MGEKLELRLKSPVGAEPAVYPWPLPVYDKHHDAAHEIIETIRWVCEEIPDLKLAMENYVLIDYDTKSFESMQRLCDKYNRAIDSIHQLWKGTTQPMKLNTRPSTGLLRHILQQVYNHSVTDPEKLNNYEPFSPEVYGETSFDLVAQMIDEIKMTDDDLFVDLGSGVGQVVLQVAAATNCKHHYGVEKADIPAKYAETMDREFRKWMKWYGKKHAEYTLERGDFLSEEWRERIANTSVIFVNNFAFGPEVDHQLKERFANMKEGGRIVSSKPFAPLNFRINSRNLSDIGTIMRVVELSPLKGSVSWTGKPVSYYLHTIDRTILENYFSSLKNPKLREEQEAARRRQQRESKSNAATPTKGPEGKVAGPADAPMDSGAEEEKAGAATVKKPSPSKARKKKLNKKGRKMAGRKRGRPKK

SMILES | IC50
CN(C[C@H]1O[C@@H](n2cnc3c(N)ncnc32)[C@H](O)[C@@H]1O)C1CC(CCc2nc3cc(C4(C)CCC4)ccc3[nH]2)C1 (stereo partly drawn) [Compound 33, (2R,3R,4S,5R)-2-(6-amino-9H-purin-9-yl)-5-((methyl(3-(2-(5-(1-methylcyclobutyl)-1H-benzo[d]imidazol-2-yl)ethyl)cyclobutyl)amino)methyl)tetrahydrofuran-3,4-diol] | < 100 nM
CN(C[C@H]1C[C@@H](n2ccc3c(N)ncnc32)[C@H](O)[C@@H]1O)[C@H]1C[C@H](CCc2nc3cc(Br)ccc3[nH]2)C1 [Compound 55, (1R,2S,3R,5R)-3-(4-amino-7H-pyrrolo[2,3-d]pyrimidin-7-yl)-5-((((1s,3R)-3-(2-(5-bromo-1H-benzo[d]imidazol-2-yl)ethyl)cyclobutyl)(methyl)amino)methyl)cyclopentane-1,2-diol] | < 100 nM
CN(C[C@H]1O[C@@H](n2cnc3c(N)ncnc32)[C@H](O)[C@@H]1O)[C@H]1C[C@H](CCc2nc3cc(OC(F)(F)F)ccc3[nH]2)C1 [Compound 97] | < 100 nM
CN(C[C@H]1O[C@@H](n2ccc3c(N)ncnc32)[C@H](O)[C@@H]1O)[C@H]1C[C@@H](CCc2nc3cc(OC(F)(F)F)ccc3[nH]2)C1 [Compound 94, (2R,3R,4S,5R)-2-(4-amino-7H-pyrrolo[2,3-d]pyrimidin-7-yl)-5-((methyl((1r,3S)-3-(2-(5-(trifluoromethoxy)-1H-benzo[d]imidazol-2-yl)ethyl)cyclobutyl)amino)methyl) tetrahydrofuran-3,4-diol] | < 100 nM
CCN(C[C@H]1C[C@@H](n2ccc3c(N)ncnc32)[C@H](O)[C@@H]1O)[C@H]1C[C@@H](CCc2nc3cc(C(C)(C)C)ccc3[nH]2)C1 [Compound 38, (1R,2S,3R,5R)-3-(4-amino-7H-pyrrolo[2,3-d]pyrimidin-7-yl)-5-((((1r,3S)-3-(2-(5-(tert-butyl)-1H-benzo[d]imidazol-2-yl)ethyl)cyclobutyl)(ethyl)amino)methyl)cyclopentane-1,2-diol] | < 100 nM
CC(C)(C)c1ccc2[nH]c(CC[C@H]3C[C@@H](NC[C@H]4O[C@@H](n5cnc6c(N)ncnc65)[C@H](O)[C@@H]4O)C3)nc2c1 [Compound 98, (2R,3R,4S,5R)-2-(6-amino-9H-purin-9-yl)-5-((((1r,3S)-3-(2-(5-(tert-butyl)-1H-benzo[d]imidazol-2-yl)ethyl)cyclobutyl)amino)methyl) tetrahydrofuran-3,4-diol] | < 100 nM
CN(C[C@H]1O[C@@H](n2cnc3c(N)ncnc32)[C@H](O)[C@@H]1O)[C@H]1C[C@H](CCc2nc3cc(C4CC4)ccc3[nH]2)C1 [Compound 134, (2R,3R,4S,5R)-2-(6-amino-9H-purin-9-yl)-5-((((1s,3R)-3-(2-(5-cyclopropyl-1H-benzo[d]imidazol-2-yl)ethyl)cyclobutyl) (methyl)amino)methyl) tetrahydrofuran-3,4-diol] | < 100 nM
CC(C)CN(C[C@H]1C[C@@H](n2ccc3c(N)ncnc32)[C@H](O)[C@@H]1O)C1CC(CCc2nc3cc(C(C)(C)C)ccc3[nH]2)C1 (stereo partly drawn) [Compound 45, (1R,2S,3R,5R)-3-(4-amino-7H-pyrrolo[2,3-d]pyrimidin-7-yl)-5-(((3-(2-(5-(tert-butyl)-1H-benzo[d]imidazol-2-yl)ethyl)cyclobutyl)(isobutyl)amino)methyl)cyclopentane-1,2-diol] | < 100 nM
CN(C[C@H]1O[C@@H](n2cnc3c(N)ncnc32)[C@H](O)[C@@H]1O)C1CC(CNC(=O)Nc2ccc(C(C)(C)C)cc2)C1 (stereo partly drawn) [Compound 110, 1-((3-((((2R,3S,4R,5R)-5-(6-amino-9H-purin-9-yl)-3,4-dihydroxytetrahydrofuran-2-yl)methyl)(methyl)amino)cyclobutyl)methyl)-3-(4-(tert-butyl)phenyl)urea] | < 100 nM
CN(C[C@H]1C[C@@H](n2ccc3c(N)ncnc32)[C@H](O)[C@@H]1O)C1CC(CCc2nc3cc(C(F)(F)F)c(Cl)cc3[nH]2)C1 (stereo partly drawn) [Compound 7, (1R,2S,3R,5R)-3-(4-amino-7H-pyrrolo[2,3-d]pyrimidin-7-yl)-5-(((3-(2-(6-chloro-5-(trifluoromethyl)-1H-benzo[d]imidazol-2-yl)ethyl)cyclobutyl)(methyl)amino)methyl)cyclopentane-1,2-diol] | < 100 nM
CC(C)N(C[C@H]1O[C@@H](n2cnc3c(N)ncnc32)[C@H](O)[C@@H]1O)C1CC(CCc2nc3cc(C4CC4)ccc3[nH]2)C1 (stereo partly drawn) [Compound 112, (2R,3R,4S,5R)-2-(6-amino-9H-purin-9-yl)-5-(((3-(2-(5-cyclopropyl-1H-benzo[d]imidazol-2-yl)ethyl)cyclobutyl) (isopropyl)amino)methyl)tetrahydrofuran-3,4-diol] | < 100 nM
CN(C[C@H]1C[C@@H](n2ccc3c(N)ncnc32)[C@H](O)[C@@H]1O)C1CC(CCc2nc3cc(Cl)c(Cl)cc3[nH]2)C1 (stereo partly drawn) [Compound 23, (1R,2S,3R,5R)-3-(4-amino-7H-pyrrolo[2,3-d]pyrimidin-7-yl)-5-(((3-(2-(5,6-dichloro-1H-benzo[d]imidazol-2-yl)ethyl)cyclobutyl)(methyl)amino)methyl)cyclopentane-1,2-diol] | < 100 nM
CC(C)(C)c1ccc2[nH]c(CCC3CC(N(CC4CC4)C[C@H]4C[C@@H](n5ccc6c(N)ncnc65)[C@H](O)[C@@H]4O)C3)nc2c1 (stereo partly drawn) [Compound 44, (1R,2S,3R,5R)-3-(4-amino-7H-pyrrolo[2,3-d]pyrimidin-7-yl)-5-(((3-(2-(5-(tert-butyl)-1H-benzo[d]imidazol-2-yl)ethyl)cyclobutyl)(cyclopropylmethyl)amino)methyl)cyclopentane-1,2-diol] | < 100 nM
CC(C)N(C[C@H]1O[C@@H](n2cnc3c(N)ncnc32)[C@H](O)[C@@H]1O)C1CC(CCc2nc3cc(C4CCC4)ccc3[nH]2)C1 (stereo partly drawn) [Compound 111, (2R,3R,4S,5R)-2-(6-amino-9H-purin-9-yl)-5-(((3-(2-(5-cyclobutyl-1H-benzo[d]imidazol-2-yl)ethyl)cyclobutyl) (isopropyl)amino)methyl)tetrahydrofuran-3,4-diol] | < 100 nM
CN(C[C@@H]1C[C@@H](O)[C@H](n2ccc3c(N)ncnc32)C1)[C@H]1C[C@H](CCc2nc3cc(Cl)c(C(F)(F)F)cc3[nH]2)C1 [Compound 85, (1R,2R,4S)-2-(4-amino-7H-pyrrolo[2,3-d]pyrimidin-7-yl)-4-((((1s,3S)-3-(2-(5-chloro-6-(trifluoromethyl)-1H-benzo[d]imidazol-2-yl)ethyl)cyclobutyl) (methyl)amino)methyl) cyclopentanol] | 10000 to 50000 nM
CN(C[C@H]1O[C@@H](n2cnc3c(N)ncnc32)[C@H](O)[C@@H]1O)[C@H]1C[C@H](CCc2nc3cc(C4CCC4)ccc3[nH]2)C1 [Compound 132, (2R,3R,4S,5R)-2-(6-amino-9H-purin-9-yl)-5-((((1s,3R)-3-(2-(5-cyclobutyl-1H-benzo[d]imidazol-2-yl)ethyl)cyclobutyl) (methyl)amino)methyl) tetrahydrofuran-3,4-diol] | < 100 nM
CC(C)N(C[C@H]1O[C@@H](n2cnc3c(N)ncnc32)[C@H](O)[C@@H]1O)[C@H]1C[C@H](CCc2nc3cc(C4(C)CCC4)ccc3[nH]2)C1 [Compound 31, (2R,3R,4S,5R)-2-(6-amino-9H-purin-9-yl)-5-((isopropyl((1s,3R)-3-(2-(5-(1-methylcyclobutyl)-1H-benzo[d]imidazol-2-yl)ethyl)cyclobutyl)amino)methyl)tetrahydrofuran-3,4-diol] | < 100 nM
CN(C[C@H]1O[C@@H](n2cnc3c(N)ncnc32)[C@H](O)[C@@H]1O)[C@H]1C[C@@H](CCc2nc3cc(OC(F)(F)F)ccc3[nH]2)C1 [Compound 96, (2R,3R,4S,5R)-2-(6-amino-9H-purin-9-yl)-5-((methyl((1r,3S)-3-(2-(5-(trifluoromethoxy)-1H-benzo[d]imidazol-2-yl)ethyl)cyclobutyl)amino)methyl)tetrahydrofuran-3,4-diol] | < 100 nM
CC(C)N(C[C@H]1O[C@@H](n2cnc3c(N)ncnc32)[C@H](O)[C@@H]1O)[C@H]1C[C@H](CCc2nc3cc(Cl)c(C(F)(F)F)cc3[nH]2)C1 [Compound 4, (2R,3R,4S,5R)-2-(6-amino-9H-purin-9-yl)-5-((((1s,3R)-3-(2-(5-chloro-6-(trifluoromethyl)-1H-benzo[d]imidazol-2-yl)ethyl)cyclobutyl)(isopropyl)amino)methyl)tetrahydrofuran-3,4-diol] | < 100 nM
CC(C)(C)c1ccc2[nH]c(CC[C@H]3C[C@@H](N(C[C@H]4O[C@@H](n5ccc6c(N)ncnc65)[C@H](O)[C@@H]4O)CC(F)(F)F)C3)nc2c1 [Compound 78, (2R,3R,4S,5R)-2-(4-amino-7H-pyrrolo[2,3-d]pyrimidin-7-yl)-5-((((1r,3S)-3-(2-(5-(tert-butyl)-1H-benzo[d]imidazol-2-yl)ethyl)cyclobutyl)(2,2,2-trifluoroethyl)amino)methyl)tetrahydrofuran-3,4-diol] | 1000 to 10000 nM
CCN(C[C@H]1O[C@@H](n2cnc3c(N)ncnc32)[C@H](O)[C@@H]1O)[C@H]1C[C@H](CCc2nc3cc(C(C)(C)C)ccc3[nH]2)C1 [Compound 74, (2R,3R,4S,5R)-2-(6-amino-9H-purin-9-yl)-5-((((1s,3R)-3-(2-(5-(tert-butyl)-1H-benzo[d]imidazol-2-yl)ethyl)cyclobutyl)(ethyl)amino)methyl)tetrahydrofuran-3,4-diol] | < 100 nM
CC(C)N(C[C@H]1C[C@@H](n2ccc3c(N)ncnc32)[C@H](O)[C@@H]1O)C1CC(CCc2nc3cc(C(C)(C)C)ccc3[nH]2)C1 (stereo partly drawn) [Compound 19, (1R,2S,3R,5R)-3-(4-amino-7H-pyrrolo[2,3-d]pyrimidin-7-yl)-5-(((3-(2-(5-(tert-butyl)-1H-benzo[d]imidazol-2-yl)ethyl)cyclobutyl)(isopropyl)amino)methyl)cyclopentane-1,2-diol] | < 100 nM
